Laboratory results as given in patent publication US10669271B2, “Heterocyclic compounds as immunomodulators” (Incyte Corporation, priority 2018, dated 2020).
pEC50, pIC50: −log10 of the molar value.

Experiments:
[1] = target: PD-1/PD-L1 (Homo sapiens (Human), UniProt Q9NZQ7); experiment: Homogeneous Time-Resolved Fluorescence (HTRF) PD-1/PD-L1 binding assay; details: recombinant human PD-1 and PD-L1, 25° C., pH 7.4
Protocol: Example A. Homogeneous Time-Resolved Fluorescence (HTRF) PD-1/PD-L1 Binding Assay
The assays were conducted in a standard black 384-well polystyrene plate with a final volume of 20 μL. Inhibitors were first serially diluted in DMSO and then added to the plate wells before the addition of other reaction components. The final concentration of DMSO in the assay was 1%. The assays were carried out at 25° C. in the PBS buffer (pH 7.4) with 0.05% Tween-20 and 0.1% BSA. Recombinant human PD-L1 protein (19-238) with a His-tag at the C-terminus was purchased from AcroBiosystems (PD1-H5229). Recombinant human PD-1 protein (25-167) with Fc tag at the C-terminus was also purchased from AcroBiosystems (PD1-H5257). PD-L1 and PD-1 proteins were diluted in the assay buffer and 10 μL was added to the plate well. Plates were centrifuged and proteins were preincubated with inhibitors for 40 minutes. The incubation was followed by the addition of 10 μL of HTRF detection buffer supplemented with Europium cryptate-labeled anti-human IgG (PerkinElmer-AD0212) specific for Fc and anti-His antibody conjugated to SureLight®-Allophycocyanin (APC, PerkinElmer-AD0059H). After centrifugation, the plate was incubated at 25° C. for 60 min. before reading on a PHERAstar FS plate reader (665 nm/620 nm ratio). Final concentrations in the assay were—3 nM PD1,10 nM PD-L1, 1 nM europium anti-human IgG and 20 nM anti-His-Allophycocyanin. IC50 determination was performed by fitting the curve of percent control activity versus the log of the inhibitor concentration using the GraphPad Prism 5.0 software.

[2] = test system: PD-L1 aAPC/CHO-K1 cells and Jurkat-PD-1-NFAT effector cells; experiment: Nuclear factor of activated T-cells (NFAT) assay; type: cell-based; details: Cricetulus griseus; PD-L1 aAPC/CHO-K1 cells with Jurkat-PD-1-NFAT effector cells, 24 hours
Protocol: Example C. Nuclear Factor of Activated T-Cells (NFAT) Assay
PD-L1 aAPC/CHO-Klcells (Promega) were maintained in F-12 medium with addition of 10% FBS, 200 μg/ml Hygromycin B, 250 μg/ml Geneticin (G418). Jurkat-PD-1-NFAT effector cells (Promega) were cultured in RPMI 1640 medium supplemented with 10% FBS, 100 μg/ml Hygromycin B, 500 μg/ml G418. The culture media of PD-L1 aAPC/CHO-K1 cells were first replaced with assay medium (RPMI1640 medium with 1% FBS). The PD-L1 aAPC/CHO-K1 cells were then added in a white 384-well white clear bottom assay plate (CELLCOAT® Tissue Culture Plates, Greiner Bio-One) at 8000 per well in 10 μL assay medium. Test compounds were prepared by serial dilution in DMSO and 0.8 μL test compounds in DMSO were first transferred to the 384 REMP plate well (Thermofisher) by PlateMate Plus (Thermofisher) followed with addition of 50 μL plating medium. 5 μL compounds in the assay medium were transferred to the cells with 0.4% DMSO in the final assay at 2 μM. After removing the culture media, 10,000 Jurkat-PD-1-NFAT effector cells in 5 μL assay medium was dispensed into each well. The assay plate was incubated at 37° C., 5% CO2 for 24 hours. After the assay plate was equilibrated to room temp for 15 minutes, 20 µL/well of Bio-Glo™ reagent (Promega) were added. After 8 minutes incubation at room temperature, luminescence was read at with Pherastar microplate reader (BMG Labtech). The fold of induction (FOI) was calculated based on the ratio of luminescence normalized to the DMSO wells within each assay plate. The maximum percentage of induction was reported based on the ratio between the highest FOI of each compound and the maximum FOI of control compound within each assay plate. Wells with DMSO were served as the negative controls and wells containing control compound with the highest FOI were used as positive controls. EC50 determination was performed by fitting the curve of percent control activity versus the log of the compound concentration using the GraphPad Prism 6.0 software.

[3] = test system: U2OS/PD-L1 cells and Jurkat-PD-1-SHP cells; experiment: Src homology region 2 domain-containing phosphatase (SHP) assay; type: cell-based; details: Homo sapiens; U2OS/PD-L1 cells with Jurkat-PD-1-SHP cells, 2 hours
Protocol: Example B. Src Homology Region 2 Domain-Containing Phosphatase (SHP) Assay
U2OS/PD-L1 cells (DiscoveRx Corporation) were maintained in McCoy's 5A medium with addition of 10% FBS, 0.25 μg/ml Puromycin. After removing the culture media, the cell medium was replaced with assay medium (RPMI1640 medium with 1% FBS). The U2OS/PD-L1 cells were then added in 384-well black clear bottom assay plate (CELLCOAT® Tissue Culture Plates, Greiner Bio-One) at 5000 cells per well in 20 μL assay medium. Test compounds were prepared by serial dilution in DMSO and 125 nL compound were first transferred to the 384 REMP plate well (Thermofisher) by ECHO liquid handler (Labcyte) followed with addition of 27.5 μL assay medium. 5 μL/well compounds in the assay medium were transferred to the cell plate with 0.05% DMSO in the final assay at 0.5 μM. Jurkat-PD-1-SHP cells (DiscoveRx Corporation) were cultured in RPMI1640 medium supplemented with 10% FBS, 250 μg/ml Hygromycin B, 500 μg/ml G418. After the replacement of culture media with assay medium, 5,000 Jurkat-PD-1-SHP cells in 20 μL were dispensed into each well. The assay plate was incubated at 37° C., 5% CO2 for 2 hours before 2.5 μL PathHunter reagent 1 (DiscoveRx Corporation) were added to each well. The assay plate was shaken for 1 min at 350 rpm in the dark followed with addition of 10 μL PathHunter reagent 2 (DiscoveRx Corporation). Chemiluminescent signal was recorded with TopCount reader (Perkin Elmer) after incubation at room temperature for 1 hour. Wells with DMSO were served as the positive controls and wells containing no cells were used as negative controls. IC50 determination was performed by fitting the curve of percentage of control activity versus the log of the compound concentration using the GraphPad Prism 6.0 software.

[4] = target: PD-L1 (Homo sapiens (Human), UniProt Q9NZQ7); experiment: PD-L1 whole blood internalization assay; type: cell-based; details: 1 ng/ml human interferon γ, PD-L1 expression on CD14+ cells, read-out: Whole Blood (24 HR) IC50
Chain of PD-L1 (Q9NZQ7 19-290): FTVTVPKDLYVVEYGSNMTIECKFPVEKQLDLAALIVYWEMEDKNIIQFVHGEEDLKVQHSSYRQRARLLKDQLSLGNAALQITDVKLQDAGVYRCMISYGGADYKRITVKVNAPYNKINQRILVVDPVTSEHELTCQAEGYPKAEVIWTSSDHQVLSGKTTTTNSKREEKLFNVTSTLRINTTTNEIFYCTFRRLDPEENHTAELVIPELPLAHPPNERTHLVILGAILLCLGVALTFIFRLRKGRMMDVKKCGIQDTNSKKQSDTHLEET
Protocol: Example D. PD-L1 Whole Blood Internalization Assay
To determine PD-L1 internalization in human whole blood, normal human blood (Biological Specialty Corp, Colmar. Pa.) was incubated in the presence or absence of a concentration range of test compounds and 1 ng/ml human interferon γ (R&D Systems Inc. Minn. […] Blood was then stained with PD-L1 (MIH1, eBioscience; or BD Biosciences San Jose, Calif.), CD14 (Life Technologies, Carlsbad, Calif.) for 30 minutes in the dark at room temperature. Whole Blood/red cells were lysed/fixed (lysis buffer BD Biosciences) for 5 minutes at 37° C. in the dark and then centrifuged at 1600 RPM for 5 minutes. Cells were resuspended in Stain Buffer (BD Bioscience, San Jose, Calif.) and transferred into 96 well round bottom plates (Corning). Cells were gated on CD14+(BD Biosciences) and PD-L1 expression determined by mean fluorescence intensity (MFI) (BD LSRFortessa™ X-20). IC50 determination was performed by fitting the curve of compound percent inhibition versus the log of the compound concentration using the GraphPad Prism 7.0 software.

Chain of PD-1/PD-L1 (Q9NZQ7 19-238): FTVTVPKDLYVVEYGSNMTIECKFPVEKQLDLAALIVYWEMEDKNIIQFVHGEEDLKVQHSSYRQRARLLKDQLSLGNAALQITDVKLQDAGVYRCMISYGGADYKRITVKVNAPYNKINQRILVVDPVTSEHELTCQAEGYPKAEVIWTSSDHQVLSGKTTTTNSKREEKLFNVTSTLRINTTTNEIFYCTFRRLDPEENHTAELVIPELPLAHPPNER

SMILES | pIC50 [1] | pEC50 [2] | pIC50 [3] | pIC50 [4]
Cc1c(Nc2nc(C(F)F)nc3cc(CN4CC[C@@H](O)C4)cnc23)cccc1-c1cccc(-c2nc3cc(CN4CC[C@@H](C(=O)O)C4)cc(C#N)c3o2)c1C [Example 17, (R)-1-((7-cyano-2-(3′-(2-(difluoromethyl)-7-(((R)-3-hydroxypyrrolidin-1-yl)methyl)pyrido[3,2-d]pyrimidin-4-ylamino)-2,2′-dimethylbiphenyl-3-yl)benzo[d]oxazol-5-yl)methyl)pyrrolidine-3-carboxylic Acid] | ≥ 8.00 | 7.00 to 8.00 | ≥ 8.00 | 7.00 to 8.00
Cc1nc(Nc2cccc(-c3cccc(-c4nc5cc(CN6CCC(C(=O)O)CC6)cc(C#N)c5o4)c3C)c2C)c2ncc(CN3CC[C@](C)(O)C3)cc2n1 [Example 3, (S)-1-((7-cyano-2-(3′-(7-((3-hydroxy-3-methylpyrrolidin-1-yl)methyl)-2-methylpyrido[3,2-d]pyrimidin-4-ylamino)-2,2′-dimethylbiphenyl-3-yl)benzo[d]oxazol-5-yl)methyl)piperidine-4-carboxylic Acid] | ≥ 8.00 | 7.00 to 8.00 | ≥ 8.00 | 7.00 to 8.00
Cc1c(Nc2nc(C(F)F)nc3cc(CN4CC[C@](C)(O)C4)cnc23)cccc1-c1cccc(-c2nc3cc(CN4CCC(C(=O)O)CC4)cc(C#N)c3o2)c1C [Example 31, (S)-1-((7-cyano-2-(3′-(2-(difluoromethyl)-7-((3-hydroxy-3-methylpyrrolidin-1-yl)methyl)pyrido[3,2-d]pyrimidin-4-ylamino)-2,2′-dimethylbiphenyl-3-yl)benzo[d]oxazol-5-yl)methyl)piperidine-4-carboxylic Acid] | ≥ 8.00 | ≥ 8.00 | ≥ 8.00 | 7.00 to 8.00
Cc1c(Nc2nc(C(F)(F)F)nc3cc(CN4CC[C@@H](O)C4)cnc23)cccc1-c1cccc(-c2nc3cc(CN4CCC(C(=O)O)CC4)cc(C#N)c3o2)c1C [Example 19, (R)-1-((7-cyano-2-(3′-(7-((3-hydroxypyrrolidin-1-yl)methyl)-2-(trifluoromethyl)pyrido[3,2-d]pyrimidin-4-ylamino)-2,2′-dimethylbiphenyl-3-yl)benzo[d]oxazol-5-yl)methyl)piperidine-4-carboxylic Acid] |  | 7.00 to 8.00 | ≥ 8.00 | 7.00 to 8.00
Cc1nc(Nc2cccc(-c3cccc(-c4nc5cc(CN6CC[C@@](C)(C(=O)O)C6)cc(C#N)c5o4)c3C)c2C)c2ncc(CNC[C@H](C)O)cc2n1 [Example 15, (R)-1-((7-cyano-2-(3′-(7-(((S)-2-hydroxypropylamino)methyl)-2-methylpyrido[3,2-d]pyrimidin-4-ylamino)-2,2′-dimethylbiphenyl-3-yl)benzo[d]oxazol-5-yl)methyl)-3-methylpyrrolidine-3-carboxylic Acid] | ≥ 8.00 | 7.00 to 8.00 | ≥ 8.00 | 
Cc1nc(Nc2cccc(-c3cccc(-c4nc5cc(CN6CC[C@@H](C(=O)O)C6)cc(C#N)c5o4)c3C)c2C)c2ncc(CNC[C@H](C)O)cc2n1 [Example 10, (R)-1-((7-cyano-2-(3′-(7-(((S)-2-hydroxypropylamino)methyl)-2-methylpyrido[3,2-d]pyrimidin-4-ylamino)-2,2′-dimethylbiphenyl-3-yl)benzo[d]oxazol-5-yl)methyl)pyrrolidine-3-carboxylic Acid] | ≥ 8.00 | 7.00 to 8.00 | ≥ 8.00 | 
Cc1nc(Nc2cccc(-c3cccc(-c4nc5cc(CN6CC[C@@H](C(=O)O)C6)cc(C#N)c5o4)c3C)c2C)c2ncc(CN[C@@H](C)CO)cc2n1 [Example 9, (R)-1-((7-cyano-2-(3′-(7-(((S)-1-hydroxypropan-2-ylamino)methyl)-2-methylpyrido[3,2-d]pyrimidin-4-ylamino)-2,2′-dimethylbiphenyl-3-yl)benzo[d]oxazol-5-yl)methyl)pyrrolidine-3-carboxylic Acid] | ≥ 8.00 | 7.00 to 8.00 | ≥ 8.00 | 
Cc1c(Nc2nc(C(F)(F)F)nc3cc(CN4CC[C@@H](O)C4)cnc23)cccc1-c1cccc(-c2nc3cc(CN4CC[C@@H](C(=O)O)C4)cc(C#N)c3o2)c1C [Example 20, (R)-1-((7-cyano-2-(3′-(7-(((R)-3-hydroxypyrrolidin-1-yl)methyl)-2-(trifluoromethyl)pyrido[3,2-d]pyrimidin-4-ylamino)-2,2′-dimethylbiphenyl-3-yl)benzo[d]oxazol-5-yl)methyl)pyrrolidine-3-carboxylic Acid] |  | 7.00 to 8.00 | ≥ 8.00 | 7.00 to 8.00
Cc1cc2cc(CN3CC[C@@H](O)C3)cnc2c(Nc2cccc(-c3cccc(-c4nc5cc(CN6CC[C@@H](C(=O)O)C6)cc(C#N)c5o4)c3C)c2C)n1 [Example 33, (R)-1-((7-cyano-2-(3′-(3-(((R)-3-hydroxypyrrolidin-1-yl)methyl)-6-methyl-1,7-naphthyridin-8-ylamino)-2,2′-dimethylbiphenyl-3-yl)benzo[d]oxazol-5-yl)methyl)pyrrolidine-3-carboxylic Acid] |  | ≥ 8.00 | ≥ 8.00 | 7.00 to 8.00
